Data on 2 compounds can be found in US20060039879A1, “Use of particular polyols for preventing the hair from breaking, composition comprising them and cosmetic hair treatment process” (L'OREAL, priority 2004, published 2006).

Assay [1] is described as follows: Level of premature breakage of hairs in a tensile test (Zwick tensile testing machine). The following applies: 5% by weight compound in water; 30 natural African hairs immersed 3 days at 40° C., no final rinsing; hairs 30 mm, drawn at 10 mm/minute; untreated control R = 0.27. As for the experimental part: The hair used for the following tests was left in a glove box at 25° C. and 45% relative humidity for about 24 hours.
A composition was prepared by mixing together 5% by weight of the compound of Example 1 and 95% by weight of water relative to the total weight of the composition.
30 natural African hairs were then treated with this composition: the hairs were immersed for 3 days at 40° C., without final rinsing, and their level of premature breakage was then compared with that of a batch of untreated natural control hairs.
Mechanical tests were performed using a Zwick tensile testing machine on the hairs 30 mm long. The hairs were drawn at a speed of 10 mm/minute.
The level of premature breakage of the treated African hair, on the one hand, and of the untreated African hair, on the other hand, was evaluated as follows: R=1—(number of hairs showing breakage under tension in the hardening zone/N) • N being the total number of hairs tested.

For assay [2] the following is noted: treatment with aqueous solutions of the humectant; breakage for small elongations; cited from earlier work.

Each structure is given as a SMILES string.

Consider `O=C(NCCO)NCCO` [Example 1, N,N′-bis(2-hydroxyethyl)urea], for which, in assay [1], the “Level of premature breakage R, first test” value was “R = 0.17” and the “Level of premature breakage R, second test” value is “R = 0.10”.
On to `OCC(O)CO` [glycerol], for which the “Improving the mechanical strength of Negroid hair and reducing its level of premature breakage” value in assay [2] was “effective”.
